Here are results for 1 compound from patent publication US20250387360A1, “Methods and Compositions for Treatment of Addiction” (University of Connecticut, priority 2024, published 2025).

Assay type in all cases: in vivo, mouse
Data set [1] has as its system male C57BL/6J mice. The data set is described as follows: 4-day DID binge-like ethanol drinking with SCFA supplementation in drinking water. The settings on record: 200 mM in drinking water 10 days, male mice n=21/group. The source says:
(§1) Male C57BL/6J mice, (RRID: IMSR_JAX: 000664), aged 6-8 weeks, were obtained from Jackson Laboratories (ME, U.S.A) for the study. The mice were housed individually under a reversed 12-hours light/dark cycle, with lights off from […] to 7:00 am. A minimum acclimation period of 2 weeks was provided for all animals before they were randomly assigned to their respective groups. Mice had free access to food (Irradiated chow, Teklad global 18% protein rodent diet, 2918, Inotiv, WI, U.S.A) and deionized water to acclimate to the testing environment. Body weight and daily food and fluid intake were monitored and noted for all animal experiments.
(§2) A standard 4-day drinking in the dark (DID) model was used to evaluate binge-like ethanol drinking patterns in mice. A 20% v/v ethanol solution was prepared by diluting 190-proof ethyl alcohol (Sigma, MO, U.S.A) with deionized water. During days 1-3, the water bottles were temporarily removed during the dark cycle of the mice, and the mice were provided with a tube containing the 20% v/v ethanol solution for a duration of two hours. On day four, the assessment of binge-like ethanol consumption took place, where the mice were given access to the 20% v/v ethanol solution for a period of four hours. The volume of fluid in the tube (read to the closest 100 μL) was measured immediately upon placement, and at two hours and four hours into the test. Following the completion of the four hours test, approximately 100 μL of blood was collected through cardiac puncture after CO2 euthanasia. Blood samples were subjected to centrifugation at 10,000 rpm for 10 minutes. The determination of blood ethanol concentrations (BEC) was performed using an Analox AMI Analyzer (Analox Instruments, MA, U.S.A). The quantity of ethanol consumed was then calculated as grams per kilogram of the mouse's body weight.
All SCFA were used in sodium salt form. Briefly, sodium acetate (Sigma, MO, U.S.A), sodium butyrate (Sigma, MO, U.S.A), sodium valerate (Ambeed, IL, U.S.A), and sodium chloride (NaCl; Sigma, Mo, U.S.A) were prepared at 200 mM concentration freshly in drinking water every two days. These concentrations were chosen based on earlier studies conducted in mice [Qi Y., et al., Sodium acetate regulates milk fat synthesis through the activation of GPR41/GPR43 signaling pathway. Frontiers in nutrition 2023, 10:1098715; Daien C I, et al., Gut-derived acetate promotes B10 cells with anti-inflammatory effects. JCI insight 2021, 6 (7)]. All SCFA and NaCl solutions were pH verified to control for acidity effects on daily consumption. SCFAs were given to mice via oral drinking for 10 consecutive days before any experiment, and this regimen was maintained throughout the entire experiment.
General statistical analysis (non-microbiome and non-RNAseq analysis) were conducted using GraphPad Prism 8 (GraphPad, CA, USA, RRID:SCR_002798). For the calculation of ethanol consumption during the DID procedure, it was expressed as grams of ethanol per kilogram of body weight (g/kg body weight), where 20% ethanol intake was determined as follows: multiplying the drinking volume by the ethanol percentage within that volume and the density of ethanol, and then dividing this by the mouse's body weight in kilograms. Normality of data distributions was tested by Shapiro-Wilk test and by Q-Q plots. Levene's test was used to test equality of variances across groups. Unpaired Student's t-tests were used to compare behavioral testing, GABA levels, and histone acetylation measurements between the sodium valerate and NaCl groups. To evaluate the impact of antibiotic cocktail administration on ethanol consumption and BEC between the groups receiving Abx and PBS at baseline and after treatment, a mixed ANOVA test was employed, given repeated measures from the same mouse from the two time points. Similarly, mixed ANOVA tests were applied to compare various SCFA levels before and after Abx administration.

Data set [2] concerns male mice. Kind of data set: Dosage dependent, short-term sodium valerate in 4-day DID regimen. To be noted: day 1 to day 4, n=7/group, vs vehicle. The procedure: Different dosages of sodium valerate ranging from 20 mM to 200 mM were tested in male mice (n=7/group, 6-8 weeks old) using a 4-day DID regimen. Different dosages of sodium valerate were given through drinking water 30 min before the 2-hour drinking exposure at Day 1 and continued to day 4 except the drinking hours.
as §2, with “The determination of blood ethanol concentrations (BEC) was performed using an Analox AMI Analyzer (Analox Instruments, MA, U.S.A).” left out, “weight. […]” for “weight.”

Data set [3] in a line: Daily body weight, food and fluid intake monitoring. The settings on record: 10-day supplementation.
Excerpt: as §1
The food intake was assessed by providing a pre-weighed amount of food in their cage hopper and then weighing the remaining food inside the cage and in the hopper daily. To assess daily fluid intake, the sodium valerate and NaCl bottles were pre-weighed, and the remaining amount was deducted after the measurement period. Food and fluid intakes were normalized to mouse body weight by dividing the average intake by the average body weight.

The subject of data set [4] is gut microbiome. Kind of data set: 16S rRNA sequencing of stool and gut-brain module analysis. The settings on record: stool.
Procedure: Microbial genomic DNA extraction from mouse stool samples was carried out using the Quick-DNA Fecal/Soil Microbe 96 Kit (Zymo Research, CA, U.S.A) following the manufacturer's protocols. The hypervariable region V4 of the bacterial 16S rRNA gene, 515F (5′-[sequence]-3′ (SEQ ID NO: 1)) and 806R (5′-[sequence]-3′ (SEQ ID NO: 2)) was amplified and sequenced on the Illumina MiSeq platform (2×250 bp) (Illumina, CA, U.S.A). The raw sequencing reads were processed via the DADA2 V1.16 (RRID:SCR_023519) data processing pipeline to generate amplicon sequence variants (ASVs). Taxonomic assignments were made using the Silva database V138.1 (RRID:SCR_006423), with a classification confidence threshold set at p<0.5 for assigning unclassified taxa at their respective taxonomical levels. PCR negative controls and extraction controls for DNA extraction and sequencing were included in the analysis. […] Sequencing reads from all the samples were rarified to 10,000 reads per sample. […] All of the microbiome analysis was done in R.
16S rRNA gene sequencing of stool samples collected before and after sodium valerate treatment (n=7 mice/group) was performed. […] Permutational multivariate analysis of variance (PERMANOVA) tests were performed on CLR-transformed data to test for beta-diversity differences between sodium valerate and NaCl-supplemented groups (n=14 mice/group).
The test system of data set [5] is male C57BL/6J mice. Kind of data set: Intermittent-access 20% ethanol two-bottle-choice drinking. The procedure:
Twenty male C57BL/6J mice were given access to 20% ethanol for three 24-hour sessions per week. On the first Monday, Wednesday, and Friday, mice were offered increasing concentrations of ethanol (3%, 6%, and 10% w/v, respectively) in one bottle, with water in a second bottle, to acclimate them to ethanol consumption. After this acclimation, mice received one bottle of 20% ethanol and one bottle of water every Monday, Wednesday, and Friday for 24 hours. To minimize side bias, the position of the bottles in the cage was alternated between sessions.
For the first 8 weeks, mice received intraperitoneal (i.p.) injections of phosphate-buffered saline (PBS) 30 minutes prior to each ethanol session to establish stable ethanol consumption (g/kg) and ethanol preference (ethanol intake as a proportion of total fluid intake). In the following 4 weeks (12 sessions), mice were randomly assigned to receive i.p. injections of either sodium valerate or sodium chloride (NaCl) at a dose of 600 mg/kg, 30 minutes before each ethanol session (n=10 per group). Ethanol and water consumption, as well as ethanol preference, were measured throughout the study to assess the effects of sodium valerate on ethanol drinking behavior compared to the NaCl control. After each 24-hour access period, the ethanol and water bottles were weighed, and mouse body weights were recorded to calculate ethanol intake (g/kg/24 hours) and water intake (mL/kg/24 hours). Ethanol preference was calculated as the ratio of ethanol intake to total fluid intake.

The structures appear in SMILES notation. Entries after “also recorded” stand apart in the source; their conditions may differ.

For the compound `CCCCC(=O)[O-].[Na+]` [sodium valerate], in data set [1] (vs NaCl), the BEC lowered amounted to 53% and the “reduction in ethanol consumption” value is listed as 40%. Moreover, the “ethanol consumption, median” value in data set [1] (NaCl control 7.16) is 4.03 g/kg body weight. For the same compound, the “alcohol intake, 100 mM” value in data set [2] (100 mM in drinking water 30 min before alcohol exposure) was “significantly decreased; also recorded: reduce drinking significantly”. Further, the “alcohol intake, 200 mM” value in data set [2] (200 mM in drinking water 30 min before alcohol exposure) is listed as “significantly decreased; also recorded: reduce drinking significantly”. In addition, the “body weight vs NaCl group” value in data set [3] (n=10 mice/group) is “did not differ significantly; also recorded: did not affect”. Further, in data set [3] (n=14 mice/group), the “fluid intake (intake of sodium valerate and NaCl) vs NaCl group” value is recorded as “no statistical difference; also recorded: did not affect”; the “food consumption vs NaCl group” value was “no statistical difference; also recorded: did not affect”. In addition, the “abundance of Ileibacterium genera” value in data set [4] (10 days supplementation, adjusted p=0.24, unadjusted p=0.004) is on record as “increase in abundance”. The “beta-diversity between sodium valerate and NaCl groups” value in data set [4] (after 10 days of supplementation, PERMANOVA/PCA) is “increased dissimilarity”. In addition, the “Dubosiella abundance, log2Fold change” value in data set [4] (after 10 days supplementation, DESeq2, adjusted p=9.46E-5) amounted to 7.84. Further, in data set [5] (600 mg/kg i.p. 30 min before each session, n=10, baseline 24.38±4.19, p<0.001), the “ethanol consumption, week 11” value came out at 15.47±1.49 g/kg/24 hours. Further, the “ethanol preference, week 11” value in data set [5] (600 mg/kg i.p. 30 min before each session, n=10, baseline 66.81±4.8%, p<0.01) stood at 54.26±4.5%. Also, in data set [5] (600 mg/kg i.p. 30 min before each session, n=10, p<0.001 vs baseline), the “ethanol intake, week 12” value is given as 13.42±1.60 g/kg/24 hours. Further, the “ethanol preference, week 12” value in data set [5] (600 mg/kg i.p. 30 min before each session, n=10, p<0.01 vs baseline) came out at 52.06±3.92%. Moreover, in data set [5] (600 mg/kg i.p., weeks 11 and 12, p<0.001 for both weeks), the “ethanol consumption compared to the NaCl control group” value is reported as “significantly lower”. In addition, the “ethanol preference compared to the NaCl control group” value in data set [5] (600 mg/kg i.p., weeks 11 and 12, p<0.01 for both weeks) is listed as “significantly lower”.
